Experimental data as given in ChEMBL document CHEMBL1201862, “PubChem BioAssay data set” (2004).
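A five-concentration, 48-hour dose response in 96-well plates underlies each endpoint, interpolated linearly between surrounding concentrations. Here, GI50 denotes the concentration required for 50% inhibition of growth.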 Calls of active or inactive are those of the source. Cut-off read from the data, not from the text of the source: active = GI50 up to about 1.1 µM and inactive = higher.

How the values were obtained:
Assay in all cases: NCI-60 cell line screen, 48 h
[1] = test system: COLO 205
[2] = test system: CCRF-CEM
[3] = test system: HCC 2998
[4] = test system: DMS-273
[5] = test system: SR
[6] = test system: OVCAR-4
[7] = test system: M14
[8] = test system: K562
[9] = test system: SK-MEL-5
[10] = test system: RXF 393
[11] = test system: Malme-3M
[12] = test system: OVCAR-5
[13] = test system: SNB-75
[14] = test system: LOX IMVI
[15] = test system: SF-295
[16] = test system: RPMI-8226

**Q.** What does the source list for `CCOP(=O)(OCC)C(C(=O)OC)C(=O)C(=O)Nc1cccc([N+](=O)[O-])c1` (stereo not given)?
**A.** GI50 [1]: > 100 µM (inactive); GI50 [2]: > 100 µM (inactive); GI50 [3]: > 100 µM (inactive); GI50 [4]: > 100 µM (inactive); GI50 [5]: > 100 µM (inactive); GI50 [6]: > 100 µM (inactive); GI50 [7]: > 100 µM (inactive); GI50 [8]: > 100 µM (inactive); GI50 [9]: > 100 µM (inactive); GI50 [10]: > 100 µM (inactive); GI50 [11]: > 100 µM (inactive); GI50 [12]: > 100 µM (inactive); GI50 [13]: > 100 µM (inactive); GI50 [14]: > 100 µM (inactive); GI50 [15]: > 100 µM (inactive)

**Q.** For `C=CC(=O)N1C/C(=C\c2ccc(Cl)c(Cl)c2)C(=O)/C(=C/c2ccc(Cl)c(Cl)c2)C1`, which GI50 [1] is on record?
**A.** Its GI50 is 0.112 µM (active).

**Q.** What about the GI50 [2] of the same compound?
**A.** The GI50 was 0.0228 µM (active).

**Q.** What about the GI50 [3] of the same compound?
**A.** Its GI50 is 0.204 µM (active).

**Q.** And the GI50 [4]?
**A.** The GI50 was 0.155 µM (active).

**Q.** What about the GI50 [16] of the same compound?
**A.** The GI50 was 0.0246 µM (active).

**Q.** And the GI50 [5]?
**A.** The GI50 was 0.0259 µM (active).

**Q.** What about the GI50 [6] of the same compound?
**A.** Its GI50 is 0.0318 µM (active).

**Q.** And the GI50 [7]?
**A.** Its GI50 is 0.226 µM (active).

**Q.** And the GI50 [8]?
**A.** Its GI50 is 0.0404 µM (active).

**Q.** What about the GI50 [9] of the same compound?
**A.** The GI50 was 0.478 µM (active).

**Q.** And the GI50 [10]?
**A.** The GI50 was 0.148 µM (active).

**Q.** And the GI50 [12]?
**A.** Its GI50 is 0.294 µM (active).

**Q.** And the GI50 [13]?
**A.** The GI50 was 0.187 µM (active).

**Q.** And the GI50 [14]?
**A.** The GI50 was 0.288 µM (active).

**Q.** What about the GI50 [15] of the same compound?
**A.** Its GI50 is 0.233 µM (active).

**Q.** For `COc1ccc(-c2c(N)[n+]([O-])c3ccccc3[n+]2[O-])cc1OC`, which GI50 [1] is on record?
**A.** The GI50 was > 100 µM (inactive).

**Q.** And the GI50 [4]?
**A.** Its GI50 is > 100 µM (inactive).

**Q.** What about the GI50 [16] of the same compound?
**A.** The GI50 was > 100 µM (inactive).

**Q.** What about the GI50 [5] of the same compound?
**A.** The GI50 was > 100 µM (inactive).

**Q.** And the GI50 [6]?
**A.** The GI50 was > 100 µM (inactive).

**Q.** And the GI50 [7]?
**A.** The GI50 was > 100 µM (inactive).

**Q.** And the GI50 [8]?
**A.** Its GI50 is > 100 µM (inactive).

**Q.** And the GI50 [9]?
**A.** Its GI50 is > 100 µM (inactive).

**Q.** What about the GI50 [11] of the same compound?
**A.** The GI50 was > 100 µM (inactive).

**Q.** And the GI50 [12]?
**A.** The GI50 was > 100 µM (inactive).

**Q.** And the GI50 [13]?
**A.** Its GI50 is 65.9 µM (inactive).

**Q.** What about the GI50 [15] of the same compound?
**A.** Its GI50 is > 100 µM (inactive).

**Q.** Which GI50 [1] does the source give for `Cc1ccc(C(c2c(O)c3ccccc3n(-c3ccccc3)c2=O)c2c(O)c3ccccc3n(-c3ccccc3)c2=O)cc1` here?
**A.** Its GI50 is > 100 µM (inactive).

**Q.** And the GI50 [2]?
**A.** The GI50 was 7.06 µM (inactive).

**Q.** What about the GI50 [3] of the same compound?
**A.** The GI50 was > 100 µM (inactive).

**Q.** And the GI50 [4]?
**A.** Its GI50 is > 100 µM (inactive).

**Q.** And the GI50 [16]?
**A.** Its GI50 is > 100 µM (inactive).

**Q.** What about the GI50 [5] of the same compound?
**A.** Its GI50 is 62.4 µM (inactive).

**Q.** And the GI50 [6]?
**A.** Its GI50 is > 100 µM (inactive).

**Q.** What about the GI50 [8] of the same compound?
**A.** The GI50 was > 100 µM (inactive).

**Q.** What about the GI50 [9] of the same compound?
**A.** Its GI50 is > 100 µM (inactive).

**Q.** What about the GI50 [10] of the same compound?
**A.** Its GI50 is 53.2 µM (inactive).

**Q.** What about the GI50 [11] of the same compound?
**A.** The GI50 was > 100 µM (inactive).

**Q.** What about the GI50 [12] of the same compound?
**A.** The GI50 was > 100 µM (inactive).

**Q.** What about the GI50 [14] of the same compound?
**A.** The GI50 was > 100 µM (inactive).

**Q.** Which results are given for `C[n+]1c2n(c3nc(N)[nH]c(=O)c31)C1OC(C2)C(O)C1O` (stereo not given)?
**A.** GI50 [1]: > 100 µM (inactive); GI50 [2]: > 100 µM (inactive); GI50 [3]: > 100 µM (inactive); GI50 [4]: > 100 µM (inactive); GI50 [5]: > 100 µM (inactive); GI50 [6]: > 100 µM (inactive); GI50 [7]: > 100 µM (inactive); GI50 [8]: > 100 µM (inactive); GI50 [9]: > 100 µM (inactive); GI50 [10]: > 100 µM (inactive); GI50 [11]: > 100 µM (inactive); GI50 [12]: > 100 µM (inactive); GI50 [13]: > 100 µM (inactive); GI50 [14]: > 100 µM (inactive); GI50 [15]: > 100 µM (inactive)

**Q.** Which GI50 [1] does the source give for `CC(C)(C)C(C#N)(C#N)c1ccc(C(C#N)(C#N)C(C)(C)C)nn1` here?
**A.** Its GI50 is > 100 µM (inactive).

**Q.** And the GI50 [2]?
**A.** The GI50 was > 100 µM (inactive).

**Q.** And the GI50 [3]?
**A.** The GI50 was > 100 µM (inactive).

**Q.** What about the GI50 [4] of the same compound?
**A.** Its GI50 is > 100 µM (inactive).

**Q.** And the GI50 [16]?
**A.** Its GI50 is > 100 µM (inactive).

**Q.** What about the GI50 [6] of the same compound?
**A.** Its GI50 is 89.7 µM (inactive).

**Q.** What about the GI50 [7] of the same compound?
**A.** The GI50 was > 100 µM (inactive).

**Q.** What about the GI50 [8] of the same compound?
**A.** Its GI50 is > 100 µM (inactive).

**Q.** What about the GI50 [9] of the same compound?
**A.** Its GI50 is > 100 µM (inactive).

**Q.** And the GI50 [10]?
**A.** The GI50 was 43.3 µM (inactive).

**Q.** What about the GI50 [11] of the same compound?
**A.** The GI50 was > 100 µM (inactive).

**Q.** What about the GI50 [12] of the same compound?
**A.** The GI50 was > 100 µM (inactive).

**Q.** And the GI50 [13]?
**A.** Its GI50 is 23.6 µM (inactive).

**Q.** And the GI50 [14]?
**A.** The GI50 was > 100 µM (inactive).

**Q.** And the GI50 [15]?
**A.** The GI50 was > 100 µM (inactive).

**Q.** With `Cc1ccc(S(=O)OC2C3CC4CC(C3)CC2C4)cc1` (stereo not given) as the compound, how does the GI50 [1] read?
**A.** Its GI50 is > 100 µM (inactive).

**Q.** What about the GI50 [3] of the same compound?
**A.** Its GI50 is > 100 µM (inactive).

**Q.** And the GI50 [4]?
**A.** The GI50 was > 100 µM (inactive).

**Q.** What about the GI50 [16] of the same compound?
**A.** The GI50 was > 100 µM (inactive).

**Q.** What about the GI50 [5] of the same compound?
**A.** Its GI50 is > 100 µM (inactive).

**Q.** What about the GI50 [6] of the same compound?
**A.** The GI50 was > 100 µM (inactive).

**Q.** What about the GI50 [7] of the same compound?
**A.** Its GI50 is > 100 µM (inactive).

**Q.** And the GI50 [8]?
**A.** Its GI50 is > 100 µM (inactive).

**Q.** What about the GI50 [9] of the same compound?
**A.** The GI50 was > 100 µM (inactive).

**Q.** What about the GI50 [10] of the same compound?
**A.** The GI50 was > 100 µM (inactive).

**Q.** What about the GI50 [11] of the same compound?
**A.** Its GI50 is > 100 µM (inactive).

**Q.** And the GI50 [12]?
**A.** Its GI50 is > 100 µM (inactive).

**Q.** What about the GI50 [13] of the same compound?
**A.** Its GI50 is > 100 µM (inactive).

**Q.** And the GI50 [14]?
**A.** Its GI50 is > 100 µM (inactive).

**Q.** And the GI50 [15]?
**A.** The GI50 was > 100 µM (inactive).
